Values belong to the molecule of their own block, whether it stands above or below them.
Experiments:
SHSY-5Y cells = assay: Intracellular Ca2+ signal in stimulated SHSY-5Y cells; type: cell-based
Protocol: FIG. 2A: Protection of the intracellular calcium signal by 1 uM AV411. […] After 200 seconds thapsigargin (TG, an inhibitor of the intracellular Ca^2+ pump) was added to indicate that the intracellular stores were filled and the cells were viable (second arrow). […] Each line represents the average of at least 45 cells (at least 15 cells measured in three separate experiments).
FIG. 2B: Protection of the intracellular calcium signal by 500 uM LiCl. Representative Ca^2+ responses of SHSY-5Y cells stimulated with 200 nM carbachol (at first arrow) to induce a transient release of Ca^2+ from intracellular stores. After 200 seconds thapsigargin (TG, an inhibitor of the intracellular Ca^2+ pump) was added to indicate that the intracellular stores were filled and the cells were viable (second arrow). […] Addition of 500 uM LiCl alone (pink trace)induced a small decrease in the Ca^2+ transient. […] Each line represents the average of at least 45 cells (at least 15 cells measured in three separate experiments.
FIG. 3B: Protection of the intracellular calcium signal by 5.0 mM LiCl. Representative Ca^2+ responses of SHSY-5Y cells treated with 800 ng/mL Taxol for 6 hours in the presence and absence of 5.0 mM. The experiment is the same as described for FIG. 2 except that 5 mM LiCl was used.
[…] After 200 seconds thapsigargin (TG, an inhibitor of the intracellular Ca^2+ pump) was added to indicate that the intracellular stores were filled and the cells were viable (second arrow). […] Each line represents the average of at least 45 cells (at least 15 cells measured in three separate experiments).
Intracellular Ca^2+ signals monitored in intact cells were also found to be reduced by treatment with Taxol for 6 hours (FIGS. 2B and 3B; compare control treatment (black trace) with Taxol treatment (blue trace) in both figures).

NCS-1 [1] = assay: NCS-1 levels by Western blot in Taxol-treated SHSY-5Y neuroblastoma cells; type: cell-based
Source text: (§1) Data shown are the average of three experiments.
as §1
More specifically, AV411 (ibudilast) is a drug used in several Asian countries for treatment of bronchial asthma, cerebrovascular disorders, post-stroke dizziness, and ocular allergies. In accordance with the Materials and Methods section of PNAS, Jun.
as §1

[2] = test system: lung cancer cell line (H1975); assay: Xenograft tumor volume in nude mice; type: in vivo; settings: LiCl in the presence of Taxol treatment, short time after initiation of co-therapy
Protocol: FIG. 4B: tumor volume effect.
One or more murine models as described in Richmond, et al., Mouse xenograft models vs GEM models for human cancer therapeutics, Dis Model Mech. 2008 September-October; 1(2-3): 78-82, are prepared. As explained by Richmond, et al., “[t]hese models are used to investigate the factors involved in malignant transformation, invasion and metastasis, as well as to examine response to therapy. One of the most widely used models is the human tumor xenograft. […] For example, the xenograft will be readily accepted by athymic nude mice, severely compromised immunodeficient (SCID) mice, or other immunocompromised mice (Morton and Houghton, 2007). Depending upon the number of cells injected, or the size of the tumor transplanted, the tumor will develop over 1-8 weeks (or in some instances 1-4 months, or longer), and the response to appropriate therapeutic regimes can be studied in vivo.”
Pursuant to the above protocol, a lung cancer cell line (H1975) was injected into nude mice; after two weeks tumors were large enough to measure. Exemplary dosages for use in the above murine models include 25 mg/kg taxol injected 1 time per week (2×), lithium (12.8 mg/kg) injected 1 hour prior to paclitaxel injection. Protection of NCS-1 levels and intracellular Ca^2+ signals in cells is evaluated using techniques as described in Examples 1-3.

[3] = target: NCS-1 / inositol 1,4,5 trisphosphate receptor (InsP3R) (Homo sapiens, UniProt P62166); assay: NCS-1 binding to the InsP3R
Source text: Based upon our observations regarding the activity of lithium carbonate, valproic acid, and chlorpromazine, we believe that there are additional drugs in these classes that will have the desired effect of preventing chemotherapy-induced polyneuropathy such as, but not limited to, […].

calpain = assay: Calpain activity after low dose paclitaxel; type: in vivo, mice
Source text: FIG. 3: Low dose paclitaxel increases calpain activity. Lithium treatment prevents activation of calpain.

mice [4] = assay: Echocardiograms of mice injected with taxol; type: in vivo
Source text: FIG. 5B: The bottom three panels of the figure attached, is from echocardiograms done on mice injected with taxol. These are the same mice for which the xenograph study was done (shown at the top of the figure). […] These are both measurements of contractility. […] Heart rate was not altered.
Taxol causes cardiac arrhythmias. […] The recent data shown in the bottom three panels of the FIG. 5B, is information compiled from echocardiograms done on mice injected with taxol. These are the same mice upon which the xenograph study was done (shown at the top of the figure). […] These are both measurements of contractility, which was reversed by lithium pre-treatment. […] Heart rate was not altered. The cardiologist who performed the experiment at the request of the inventor(s) was quite impressed and is considering studies in human patients. There are studies in the literature showing that chemotherapy induced changes acutely in contractility can develop into long term heart rhythm problems.

calcium release = assay: Calcium release after low dose paclitaxel; type: in vivo, mice; settings: low doses of paclitaxel
Source text: FIG. 11: Low dose paclitaxel decreases calcium release Lithium treatment prevents loss of calcium release.

NCS-1 [5] = target: NCS-1 (Homo sapiens, UniProt P62166); assay: Tryptophan fluorescence binding to NCS-1
mice [6] = assay: Paclitaxel-induced myelin damage in mice; type: in vivo; settings: paclitaxel-treated mice without Li-cotherapy
NCS-1 [7] = assay: NCS-1 levels in peripheral nerve and brain after low dose paclitaxel; type: in vivo, mice
Source text: FIG. 12: Low dose paclitaxel decreases NCS-1 levels in peripheral nerve, but not brain NCS-1 expression is maintained with lithium.

microtubule assembly = assay: Microtubule assembly; type: biochemical
Protocol: FIG. 5: Paclitaxel speeds up microtubule assembly.
The relative effects of paclitaxel-LiCl and paclitaxel-AV411 co-administration on microtubule assembly were also determined.

[8] = test system: calcium signaling in cells; assay: Protection of calcium signaling by combination treatment / calpastatin expression; type: cell-based; settings: combination treatment with Li and calpastatin (expression of calpastatin in cells)
Source text: FIG. 7: Combination treatment protects calcium signaling.
FIG. 8: Expression of calpastatin, a natural calpain antagonist, protects calcium signaling in cells.

Sequence of NCS-1 / inositol 1,4,5 trisphosphate receptor (InsP3R) (P62166 2-190 limits assumed, species assumed): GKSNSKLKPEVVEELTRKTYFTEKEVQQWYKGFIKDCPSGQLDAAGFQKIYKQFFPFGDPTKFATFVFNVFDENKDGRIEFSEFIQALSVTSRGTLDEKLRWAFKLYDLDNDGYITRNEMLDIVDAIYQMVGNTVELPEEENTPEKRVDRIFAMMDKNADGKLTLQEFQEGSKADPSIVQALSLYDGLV
Sequence of NCS-1 (Homo sapiens, UniProt P62166) (P62166 whole entry, species assumed): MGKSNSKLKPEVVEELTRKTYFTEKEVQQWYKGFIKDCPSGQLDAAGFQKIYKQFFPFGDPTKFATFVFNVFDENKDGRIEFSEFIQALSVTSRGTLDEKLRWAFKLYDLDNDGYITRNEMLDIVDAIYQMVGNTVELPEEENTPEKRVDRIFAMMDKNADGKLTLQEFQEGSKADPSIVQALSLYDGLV

Molecule: [Cl-].[Li+] [LiCl, lithium chloride]
- Intracellular Ca2+ signals (SHSY-5Y cells; 500 uM or 5.0 mM LiCl in the presence of Taxol): signals similar to that of non-treated cells
- Intracellular Ca2+ signals (SHSY-5Y cells; LiCl alone): decreased the intracellular signals, but not to the extent seen with Taxol treatment
- NCS-1 levels (Western blot) (NCS-1 [1]; 500 uM and 5.0 mM LiCl in the presence of Taxol, 6 hours, SHSY-5Y): protected from the Taxol-induced degradation of NCS-1
- NCS-1 levels (Western blot) (NCS-1 [1]; LiCl alone (500 uM, 5.0 mM)): did not reduce NCS-1 levels
- Tumor volume [2]: statistically significant decrease in tumor volume

Molecule: CN(C)CCCN1c2ccccc2Sc2ccc(Cl)cc21 [chlorpromazine]
- NCS-1 binding to InsP3R [3]: prevent neuronal calcium sensor 1 (NCS-1) from binding to the inositol 1,4,5 trisphosphate receptor (InsP3R)

Molecule: O=C([O-])[O-].[Li+].[Li+] [lithium carbonate]
- NCS-1 binding to InsP3R [3]: prevent neuronal calcium sensor 1 (NCS-1) from binding to the inositol 1,4,5 trisphosphate receptor (InsP3R)

- Calpain activity (calpain): increased calpain activity
- Calcium release (calcium release): decreased calcium release
- Binding to NCS-1 (NCS-1 [5]): binds to NCS-1
Molecule: CC(=O)O[C@H]1C(=O)[C@@]2(C)[C@H]([C@H](OC(=O)c3ccccc3)[C@]3(O)C[C@H](OC(=O)[C@H](O)[C@@H](NC(=O)c4ccccc4)c4ccccc4)C(C)=C1C3(C)C)[C@]1(OC(C)=O)CO[C@@H]1C[C@@H]2O [paclitaxel]
- End diastolic diameter and fractional shortening (contractility) (mice [4]; 1 hour after taxol injection): end diastolic diameter and fractional shortening were altered
- Heart rate (mice [4]; after taxol injection): not altered
- Ca2+ response (SHSY-5Y cells; Taxol 800 ng/mL for 6 hours, stimulated with 1 uM ATP): response lower in amplitude than non-treated cells
- Intracellular Ca2+ signals (SHSY-5Y cells; Taxol for 6 hours, 200 nM carbachol): reduced
- NCS-1 levels (Western blot) (NCS-1 [1]; paclitaxel (Taxol) alone, 800 ng/mL, 6 hours): decreased NCS-1 levels
- NCS-1 levels (Western blot) (NCS-1 [1]; paclitaxel (Taxol) alone, 800 ng/mL, 6 hours, listed as Taxol): NCS-1 degradation
- Myelin damage (mice [6]): evident myelin damage enlarged structures
- NCS-1 levels in peripheral nerve and brain (NCS-1 [7]): decreased NCS-1 levels in peripheral nerve, but not in the brain
- Microtubule assembly (microtubule assembly): accelerates microtubule assembly

Molecule: CCCC(CCC)C(=O)O [valproic acid]
- NCS-1 binding to InsP3R [3]: prevent neuronal calcium sensor 1 (NCS-1) from binding to the inositol 1,4,5 trisphosphate receptor (InsP3R)

B1: calpastatin: a natural calpain antagonist, expressed in cells (protein, UniProt P20810 1-708, looked up)
Calpastatin: MNPTETKAIPVSQQMEGPHLPNKKKHKKQAVKTEPEKKSQSTKLSVVHEKKSQEGKPKEHTEPKSLPKQASDTGSNDAHNKKAVSRSAEQQPSEKSTEPKTKPQDMISAGGESVAGITAISGKPGDKKKEKKSLTPAVPVESKPDKPSGKSGMDAALDDLIDTLGGPEETEEENTTYTGPEVSDPMSSTYIEELGKREVTIPPKYRELLAKKEGITGPPADSSKPIGPDDAIDALSSDFTCGSPTAAGKKTEKEESTEVLKAQSAGTVRSAAPPQEKKRKVEKDTMSDQALEALSASLGTRQAEPELDLRSIKEVDEAKAKEEKLEKCGEDDETIPSEYRLKPATDKDGKPLLPEPEEKPKPRSESELIDELSEDFDRSECKEKPSKPTEKTEESKAAAPAPVSEAVCRTSMCSIQSAPPEPATLKGTVPDDAVEALADSLGKKEADPEDGKPVMDKVKEKAKEEDREKLGEKEETIPPDYRLEEVKDKDGKPLLPKESKEQLPPMSEDFLLDALSEDFSGPQNASSLKFEDAKLAAAISEVVSQTPASTTQAGAPPRDTSQSDKDLDDALDKLSDSLGQRQPDPDENKPMEDKVKEKAKAEHRDKLGERDDTIPPEYRHLLDDNGQDKPVKPPTKKSEDSKKPADDQDPIDALSGDLDSCPSTTETSQNTAKDKCKKAASSSKAPKNGGKAKDSAKTTEETSKPKDD
- Calcium signaling [8]: protected calcium signaling

From patent US11517587B2, “Drug therapy to inhibit chemotherapy-induced adverse effects and related pharmaceutical compositions, diagnostics, screening techniques and kits” (YALE UNIVERSITY, priority 2011, dated 2022)
